Common to all, as to format: ADME, organism-based
Series [1] is described as follows: (§1) Pharmacokinetic parameters for Moxifloxacin hydrochloride following single oral or intravenous administration of 400 mg Moxifloxacin to healthy or patient male and/or female. Further details: dose 400 mg, route iv, route oral. The following applies: human, in vivo, 400 mg, dosed compound id 1, dosed compound name MOXIFLOXACIN, regimen Single dose, tissue Plasma.

For series [2], the system named is Homo sapiens. The series is described as §1. Further details: dose 400 mg, route iv, route oral. The following applies: in vivo, dosed compound id 1, dosed compound name MOXIFLOXACIN, regimen Single dose, study dosing duration 1 hr, tissue Plasma; for Cmax: po.
Series [3] is described as follows: (§2) Pharmacokinetic parameters for Moxifloxacin hydrochloride following multiple oral administration of 400 mg Moxifloxacin to male Japanese or Caucasian healthy or patient male and/or female. The following applies: human, in vivo, 400 mg, dosed compound id 1, dosed compound name MOXIFLOXACIN, regimen Multiple dose, tissue Plasma. On the set-up: dose 400 mg, route iv, route oral.

Series [4] deals with Homo sapiens. The series is described as §2. On the set-up: dose 400 mg, route iv, route oral. The following applies: in vivo, dosed compound id 1, dosed compound name MOXIFLOXACIN, regimen Multiple dose, tissue Plasma.
Series [5] can be described thus: Pharmacokinetic parameters for Moxifloxacin hydrochloride following oral administration of Moxifloxacin. The following applies: human, in vivo, dosed compound id 1, dosed compound name MOXIFLOXACIN, tissue Plasma.

Values joined by “and” are separate entries in the source; they are usually repeats but may differ in a detail not shown here. Identical values can stand only once.

On to `COc1c(N2C[C@@H]3CCCN[C@@H]3C2)c(F)cc2c(=O)c(C(=O)O)cn(C3CC3)c12.Cl` [MOXIFLOXACIN HYDROCHLORIDE], for which the area under the curve (AUC) in series [1] worked out at 36100 ng·h/mL; with Homo sapiens [2] (gender young male and female), 39.3 mg·h/L; in series [3] (gender young male and female, read-out: AUC), 48000 ng·h/mL; in series [3] (read-out: AUC(0-24)), 47000 ng·h/mL; in the series with Homo sapiens [4] (gender elderly male), 51.8 mg·h/L; with Homo sapiens [4] (gender young female), 49.3 mg·h/L. The AUC in the series with Homo sapiens [4] (gender young male, study dosing duration 1 hr) came out at 38 mg·h/L; with Homo sapiens [4] (gender young male), 48.2 mg·h/L. For the same molecule, the Cmax is 3100 ng/mL in series [1] (po); 4.5 mg/L in the series on Homo sapiens [2] (gender female); 4.3 mg/L in the series with Homo sapiens [2] (gender male and female); 4.4 mg/L in the series with Homo sapiens [2] (gender male); 3.9 mg/L in the series with Homo sapiens [2] (gender young male and female); 4500 ng/mL in series [3] (gender young male and female, read-out: Cmax). The Cmax in series [3] (read-out: Cmax ss) was 4100 ng/mL; in the series on Homo sapiens [4] (gender elderly male amd female, study dosing duration 1 hr), 6.1 mg/L; in the series with Homo sapiens [4] (gender elderly male), 3.8 mg/L; in the series on Homo sapiens [4] (gender female, study dosing duration 1 hr), 4.6 mg/L; in the series with Homo sapiens [4] (gender male and female, study dosing duration 1 hr) it was 4.1 mg/L and 4.7 mg/L; with Homo sapiens [4] (gender young female), 4.2 mg/L. In the series with Homo sapiens [4] (gender young male), this molecule had a Cmax of 3.6 mg/L. The “AUC(0-24)” value in the series with Homo sapiens [4] is 47 µg·h/mL. The molecule also returned a bioavailability in series [5] of 90%.

The term AUC denotes the area under the concentration-time curve, a measure of exposure. A word on the Cmax: it is the highest concentration seen after dosing. In general, bioavailability refers to the share of a dose that reaches the circulation, judged against a reference dose that is usually intravenous. Low readings indicate little systemic uptake, high ones much systemic uptake.

The record behind these values is ChEMBL document CHEMBL3832553, “DailyMed|setid=be8e0025-5726-4965-9510-e7e657687d23 | AVELOX - moxifloxacin hydrochloride tablet, coated|Lake Erie Medical Supply DBA Quality Care Products LLC”.
